Assay results from patent publication US8685924B2, “Preventives/remedies for stress urinary incontinence and method of screening the same” (Takeda Pharmaceutical Company Limited, priority 2004, dated 2014).

Assays:
Type in all cases: in vivo, rat
[1] = tested on: urethane-anesthetized female rats; test: Leak point pressure by direct compressing of the bladder (Example 4); conditions: for leak point pressure after drug administration / leak point pressure increase / leak point pressure before drug administration: i.v., mean ± SEM; for leak point pressure after drug administration: 20 min later; for leak point pressure before drug administration: baseline; for effect on leak point pressure: intravenous administration
Experimental: SD female rats (body weight 180-350 g) were anesthetized with urethane (Wako Pure Chemical Industries, Ltd.), and halothane (Takeda Pharmaceutical Company Limited) anesthesia was added when necessary during operation.
The spinal cord was transected at T8-9 level to eliminate the reflex voiding. The lower abdomen was incised in the median line, a catheter for intravesical pressure measurement (PE-90, Clay Adams) was inserted into the bladder and secured with a ligature, and the intravesical pressure was measured via a pressure transducer. Urine was emptized in advance by bilaterally pressing the bladder with two swabs, and a 0.1% Evans blue (Merck) solution (0.4 mL) was injected into the bladder. The bladder was gradually compressed bilaterally with two swabs, and the intravesical pressure upon saline leakage from the urethral orifice was measured and defined as a leak point pressure. The measurement of the leak point pressure was repeated, and the average value of the final five stable measures was taken as the value before drug administration. Thereafter, the drug was intravenously administered, the leak point pressure was measured again 20 min later, and the value after the drug administration was determined. DOI, mCPP and eltoprazine were dissolved in saline, and other drugs were dissolved in DMA/PEG400 (1:1), and intravenously administered at 1 ml/kg and 0.5 mg/kg, respectively. Depending on the experiment, RS-102221 or SB221284 (showing serotonin 5-HT2C receptor antagonist activity) was administered, 5 min later, WAY-161503 or WAY-163909 was administered, leak point pressure was measured 10 min later, and a competitive assay with the action of WAY-161503 or WAY-163909 was performed. RS-102221 and SB221284 were both dissolved in DMA/PEG400 (1:1), and intravenously administered at 0.5 ml/kg.

[2] = tested on: urethane-anesthetized female rats; test: Urethral contractile responses induced by intravesical pressure increase (Example 5); conditions: for urethral contractile responses before administration: baseline; for urethral contractile responses before administration / urethral contractile responses after administration: mean ± SEM of 5 cases; for urethral contractile responses after administration: 5 min later; for effect on urethral contractile responses during elevation of intravesical pressure: intravenous, duloxetine 10 mg/kg, WAY161503 0.3 mg/kg
Experimental: (§1) SD female rats (body weight 180-350 g) were anesthetized with urethane (Wako Pure Chemical Industries, Ltd.), and the spinal cord was transected at T8-9 level to eliminate the reflex voiding.
Halothane (Takeda Pharmaceutical Company Limited) anesthesia was added when necessary during operation. After laparotomy, the bladder neck was tied with a suture thread and then a catheter (PE-90, Clay Adams) was inserted into the bladder and secured with a ligature. The other end of the bladder catheter was connected to a pressure transducer and saline storage reservoir (60 ml syringe) via a three-way stopcock. A microchip-transducer-catheter (SPR-524, Millar Instruments Inc.) was inserted from the meatus urethra. toward the bladder. Using the scale written on the catheter surface, the transducer part was set in the urethra at 12.5-15.0 mm from the urethral orifice with its side-mounted sensor facing the inner urethral surface in the 3 o'clock position.
Topical pressure changes in the urethra (hereinafter to be conveniently indicated as intraurethral pressure) measured by a microchip-transducer were input in a computer via an amplifier (blood pressure amplification unit AP-641G; NIHON KODEN) and an analog-to-digital converter (MP-100; biopack; sampled at 500 Hz) and recorded on a hard disc. […] The response of the urethra induced by the intravesical pressure increase was measured 3 times and the average of the final two measures was taken as the value before the drug administration.
The evaluation parameters were a resting intraurethral pressure and a reflex urethral contractile responses. An average intraurethral pressure per 1 sec was calculated, and the value immediately before intravesical pressure increase was taken as the resting intraurethral pressure, and the value obtained by subtracting the resting intraurethral pressure from the maximum value during intravesical pressure increase was taken as the urethral responses. After measurement of the response before drug administration, WAY-161503 (0.3 mg/kg), which is a serotonin 5-HT2C receptor agonist, or duloxetine (10 mg/kg) was intravenously administered, the intravesical pressure was increased again 5 min later, and the responses of the urethra were measured. The both drugs were dissolved in DMA-PEG400 (1:1), and administered at 0.5 ml/kg.

[3] = tested on: urethane-anesthetized female rats; test: Leak point pressure by intravesical pressure-clamp method (Example 6); conditions: for leak point pressure after drug administration / leak point pressure before drug administration: i.v., mean ± SEM; for leak point pressure after drug administration: 10 min later; for leak point pressure before drug administration: baseline; for effect on leak point pressure: intravesical pressure-clamp method
Experimental: as §1
Halothane (Takeda Pharmaceutical Company Limited) anesthesia was added when necessary during operation. After laparotomy, the bladder neck was tied with a suture thread and then a catheter (PE-90, Clay Adams) was inserted into the bladder and secured with a ligature. The other end of the bladder catheter was connected to a pressure transducer and saline storage reservoir (60 ml syringe) via a three-way cock.
Changes in the intravesical pressure measured by a transducer were input in a computer via an amplifier (blood pressure amplification unit AP-641G; NIHON KODEN) and an analog-to-digital cinverter (MP-100; biopack) and recorded on a hard disc. The intravesical pressure was raised for 90 sec by setting the saline storage reservoir at a given height, and the presence or absence of saline leakage from the urethral orifice was observed. The intravesical pressure was raised every 2.5 cmH2O and, after 90 sec observation period, the intravesical pressure was once returned to 0 cmH2O, after which the next step was performed. The intravesical pressure at which the saline leakage from the urethral orifice was observed was taken as the leak point pressure. The measurement of the leak point pressure was repeated and the average of the final three measures was taken as the value before the drug administration. The drug was intravenously administered, and the leak point pressure was measured again 10 min later. The drug was dissolved in DMA-PEG400 (1:1), and administered at 0.5 ml/kg.

| SMILES | leak point pressure after drug administration ([1]; 0.03 mg/kg) [cmH2O] | leak point pressure increase ([1]; 0.03 mg/kg) [cmH2O] | leak point pressure after drug administration ([1]; 0.1 mg/kg) [cmH2O] | leak point pressure increase ([1]; 0.1 mg/kg) [cmH2O] | leak point pressure after drug administration ([1]; 0.3 mg/kg) [cmH2O] | leak point pressure increase ([1]; 0.3 mg/kg) [cmH2O] | leak point pressure before drug administration ([1]; dose group 0.03 mg/kg) [cmH2O] | leak point pressure before drug administration ([1]; dose group 0.1 mg/kg) [cmH2O] | leak point pressure before drug administration ([1]; dose group 0.3 mg/kg) [cmH2O] | effect on leak point pressure [1] | effect on urethral contractile responses during elevation of intravesical pressure [2] | leak point pressure after drug administration ([3]; 0.01 mg/kg) [cmH2O] | leak point pressure before drug administration ([3]; dose group 0.01 mg/kg) [cmH2O] | effect on leak point pressure [3] | further results |
| --- | --- | --- | --- | --- | --- | --- | --- | --- | --- | --- | --- | --- | --- | --- | --- |
| CNCC[C@H](Oc1cccc2ccccc12)c1cccs1 [duloxetine] | 67.8 ± 2.9 | 6.5 ± 1.6 | 72.6 ± 3.4 | 9.3 ± 1.2 | 73.3 ± 3.9 | 8.8 ± 2.1 | 61.3 ± 3.3 | 63.3 ± 3.8 | 64.5 ± 3.5 | increased the leak point pressure | enhanced the urethral contractile responses | 42.8 ± 4.9 | 37.0 ± 4.5 | increased the leak point pressure | leak point pressure after drug administration ([1]; 0.01 mg/kg): 60.5 ± 5.1 cmH2O; leak point pressure increase ([1]; 0.01 mg/kg): 2.4 ± 2.6 cmH2O; leak point pressure after drug administration ([1]; 1 mg/kg): 75.0 ± 4.0 cmH2O; leak point pressure increase ([1]; 1 mg/kg): 13.9 ± 1.8 cmH2O; leak point pressure before drug administration ([1]; dose group 0.01 mg/kg): 58.1 ± 6.0 cmH2O; leak point pressure before drug administration ([1]; dose group 1 mg/kg): 61.1 ± 3.4 cmH2O; urethral contractile responses before administration ([2]; increase in intravesical pressure to 25 cmH2O, dose group 10 mg/kg i.v.): 8.5 ± 0.5 cmH2O; urethral contractile responses before administration ([2]; increase in intravesical pressure to 50 cmH2O, dose group 10 mg/kg i.v.): 13.4 ± 2.1 cmH2O; urethral contractile responses after administration ([2]; increase in intravesical pressure to 25 cmH2O, 10 mg/kg i.v.): 11.4 ± 0.6 cmH2O; urethral contractile responses after administration ([2]; increase in intravesical pressure to 50 cmH2O, 10 mg/kg i.v.): 17.8 ± 2.2 cmH2O; leak point pressure after drug administration ([3]; 0.001 mg/kg): 38.2 ± 3.7 cmH2O; leak point pressure before drug administration ([3]; dose group 0.001 mg/kg): 36.5 ± 4.2 cmH2O |
| O=C1Nc2cc(Cl)c(Cl)cc2N2CCNCC12 (stereo not drawn) [WAY-161503] | 62.0 ± 5.8 | 7.1 ± 2.4 | 66.1 ± 2.8 | 11.5 ± 1.8 | 77.7 ± 3.6 | 22.0 ± 3.4 | 54.9 ± 6.1 | 54.7 ± 2.5 | 55.7 ± 3.8 | dose-dependently increased the leak point pressure | significant increase in the urethral contractile responses | 37.3 ± 3.5 | 33.4 ± 3.4 | increased the leak point pressure | urethral contractile responses before administration ([2]; increase in intravesical pressure to 25 cmH2O, dose group 0.3 mg/kg i.v.): 7.0 ± 1.4 cmH2O; urethral contractile responses before administration ([2]; increase in intravesical pressure to 50 cmH2O, dose group 0.3 mg/kg i.v.): 12.8 ± 2.4 cmH2O; urethral contractile responses after administration ([2]; increase in intravesical pressure to 25 cmH2O, 0.3 mg/kg i.v.): 11.3 ± 1.8 cmH2O; urethral contractile responses after administration ([2]; increase in intravesical pressure to 50 cmH2O, 0.3 mg/kg i.v.): 19.2 ± 3.4 cmH2O; leak point pressure after drug administration ([3]; 0.03 mg/kg): 41.2 ± 3.0 cmH2O; leak point pressure after drug administration ([3]; 1 mg/kg): 43.6 ± 3.2 cmH2O; leak point pressure before drug administration ([3]; dose group 0.03 mg/kg): 34.8 ± 3.2 cmH2O; leak point pressure before drug administration ([3]; dose group 1 mg/kg): 34.8 ± 3.0 cmH2O |
